Experimental data: patent publication US12532888B2, “Methods and uses of a mixture comprising alpha-cypermethrin and dinotefuran for combating or controlling mosquitoes” (priority 2020, dated 2026)

Test system: yellow fever mosquitoes (Aedes aegypti)
Test: whole plant or invertebrate
Settings: for Colby Expected: 3 days after exposure
Protocol: Glass vials (20 mL scintillation) were treated with 445 μL of varying concentrations of α-cypermethrin dissolved in acetone, respectively dinotefuran or mixtures of α-cypermethrin and dinotefuran in the indicated ratios. Vials were turned on their sides and placed on an automated roller table. The vials were rolled (6 rpm) uncapped to allow an even coating of the treatment.
After rolling, vials were allowed to completely dry for at least an hour. Each treatment was replicated five times. Prior to exposure, yellow fever mosquitoes (Aedes aegypti) were incapacitated using a chill table. Approximately six mosquitoes were placed into each vial and were exposed to treatments at room temperature for exactly one hour. A small amount of CO2 was used to incapacitate the mosquitoes to facilitate removal from treatment. Insects were then transferred to 16 oz plastic holding containers. A cotton wick moistened with 10% sugar water was provided in each container. Holding containers were moved into an incubator with environmental conditions of 27° C. and 80% relative humidity. Wicks were rehydrated daily and mortality was assessed at 3 days after exposure (DAE).
Ataxia+mortality data were used to determine whether there was a synergistic effect in the combined use of dinotefuran and α-cypermethrin.
Abbott's correction for control mortality and the Colby method for testing synergy were used to analyze combination data. […] Colby's expected mortality per combination observation=% mortality (A)+% mortality (B)−(% mortality (A)×% mortality (B))/100. Synergy ratio=% observed mortality/% Colby expected mortality.
Additive interactions have synergy ratios equal to 1, antagonistic interactions have synergy ratios of less than 1, and synergistic interactions have synergy ratios of greater than 1.

| SMILES | mortality at 0.00732 mg/m2 (Aedes aegypti, 72 h) | Colby Expected (Table 1, expected mortality of the combination 0.00732 + 0.0732 mg/m^2 by Colby's formula) | Colby Expected (Table 2, expected mortality of the combination 0.00732 + 7.32 mg/m^2 by Colby's formula) | mortality at 0.0732 mg/m2 (Aedes aegypti, 72 h) | mortality at 7.32 mg/m2 (Aedes aegypti, 72 h) |
| --- | --- | --- | --- | --- | --- |
| CC1(C)C(C=C(Cl)Cl)C1C(=O)OC(C#N)c1cccc(Oc2ccccc2)c1 (racemic) [Alpha-cypermethrin, racemate comprising (R)-α-cyano-3-phenoxybenzyl (1S, 3S)-3-(2,2-dichlorovinyl)-2,2-dimethylcyclopropanecarboxylate; (S)-α-cyano-3-phenoxybenzyl (1R, 3R)-3-(2,2-dichlorovinyl)-2,2-dimethylcyclopropanecarboxylate] | 13.9% | 13.9% | 13.9% | – | – |
| CNC(=N[N+](=O)[O-])NCC1CCOC1 (racemic) [Dinotefuran, (RS)-1-methyl-2-nitro-3-(tetrahydro-3-furylmethyl) guanidine] | – | – | – | 0% | 0% |
